# “And” between values parts separate entries of the source, which are not always exact repeats. Identical values can stand only once. Like-named read-outs stand apart in the source and are kept apart here.
# Columns and labels:
# [1] = target: T1, human DNA polymerase γ (Homo sapiens, UniProt P54098); assay: Human DNA polymerase inhibition assay, γ; format: biochemical
# T1 construct: purchased CHIMERx (Madison, WI)
# Description: (§1) The polymerases were purchased from CHIMERx (Madison, WI). Inhibition of DNA polymerase α activity was assayed in microtiter plates in 20 mM Tris-HCl, pH 8, 5 mM Mg acetate, 0.3 mg/mL BSA, 1mM DTT, 0.1 mM spermine, 0.05 mM dCTP, dTTP and dATP, 10 μCi ^32P-α-dGTP (800 Ci/mmol), 20 μg activated calf thymus DNA and the test compound at indicated concentrations. The DNA polymerase β and γ reaction mixture contained 50 mM Tris-HCl, pH 8.7, KCl (10 mM for β and 100 mM for γ), 10 mM MgCl2, 0.4 mg/mL BSA, 1mM DTT, 15% glycerol, 0.05 mM dCTP, dTTP and dATP, 10 μCi ^32P-α-dGTP (800 Ci/mmol), 20 μg activated calf thymus DNA and test compound at the indicated concentrations. For each assay, samples were run in triplicate, and positive controls were included. The enzyme reactions were allowed to proceed for 30 min at 37 °C followed by transfer onto glass-fiber filter plates and subsequent precipitation with 10% trichloroacetic acid (TCA). Plates were washed five times with 5% TCA, once with 95% ethanol and dried. The radioactive content of each filter was measured and used to determine the extent of inhibition of each polymerase.
# [2] = target: human mitochondrial RNA polymerase (POLRMT) (Homo sapiens, UniProt O00411); conditions: nucleotide controls; cited from earlier work
# Sequence of human mitochondrial RNA polymerase (POLRMT) (O00411 42-1230): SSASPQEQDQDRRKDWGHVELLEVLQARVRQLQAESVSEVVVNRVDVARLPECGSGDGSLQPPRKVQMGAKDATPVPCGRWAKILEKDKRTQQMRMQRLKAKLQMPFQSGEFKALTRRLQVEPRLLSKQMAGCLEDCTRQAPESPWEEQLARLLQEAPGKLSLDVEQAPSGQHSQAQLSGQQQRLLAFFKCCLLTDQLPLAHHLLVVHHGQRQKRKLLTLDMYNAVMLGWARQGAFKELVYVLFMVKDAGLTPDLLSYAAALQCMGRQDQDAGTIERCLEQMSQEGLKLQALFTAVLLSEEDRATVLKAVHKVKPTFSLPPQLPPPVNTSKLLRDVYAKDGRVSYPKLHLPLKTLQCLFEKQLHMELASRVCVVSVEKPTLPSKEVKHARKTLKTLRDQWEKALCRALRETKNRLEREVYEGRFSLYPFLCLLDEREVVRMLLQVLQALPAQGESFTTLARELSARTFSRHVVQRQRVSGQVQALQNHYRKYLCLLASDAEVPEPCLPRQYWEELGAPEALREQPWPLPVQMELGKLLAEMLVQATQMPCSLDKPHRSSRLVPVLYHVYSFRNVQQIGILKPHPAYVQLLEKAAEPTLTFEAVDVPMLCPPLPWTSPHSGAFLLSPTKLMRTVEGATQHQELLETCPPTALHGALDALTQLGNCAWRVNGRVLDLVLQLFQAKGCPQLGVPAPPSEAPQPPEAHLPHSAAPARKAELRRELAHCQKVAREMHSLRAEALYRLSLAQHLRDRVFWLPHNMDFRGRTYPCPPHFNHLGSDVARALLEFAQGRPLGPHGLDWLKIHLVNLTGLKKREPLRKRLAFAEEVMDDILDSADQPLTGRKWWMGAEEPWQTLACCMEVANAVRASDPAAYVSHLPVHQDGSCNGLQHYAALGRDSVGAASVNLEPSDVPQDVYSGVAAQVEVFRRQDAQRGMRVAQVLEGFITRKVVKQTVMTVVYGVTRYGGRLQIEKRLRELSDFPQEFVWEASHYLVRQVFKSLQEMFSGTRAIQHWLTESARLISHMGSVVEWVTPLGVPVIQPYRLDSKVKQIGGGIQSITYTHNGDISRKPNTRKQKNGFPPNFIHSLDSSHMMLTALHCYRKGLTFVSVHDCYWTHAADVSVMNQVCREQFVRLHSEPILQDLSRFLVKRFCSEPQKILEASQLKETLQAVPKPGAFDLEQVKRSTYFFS
# [3] = system: HCV NS5B replicons, laboratory strains; assay: PhenoSense HCV NS5B assay, laboratory strains; format: cell-based, hepatitis C virus
# [4] = system: HCV NS5B replicons from clinical isolates; assay: PhenoSense HCV NS5B assay, clinical isolates; format: cell-based, hepatitis C virus; conditions: for EC50: Hepatitis C virus
# [5] = system: HCV strains containing resistance-associated variants (RAVs); assay: PhenoSense HCV NS5B assay, resistance-associated variants; format: cell-based, hepatitis C virus; conditions: for EC50: Hepatitis C virus
# [6] = system: Huh-luc/neo-ET cells; conditions: XTT
# [7] = system: HCV GT1b replicon; assay: HCV GT1b replicon assay (Britelite luciferase reporter)
# [8] = system: HEp2 cells
# [9] = system: RSV; assay: Anti-RSV assay (XTT); conditions: RSV in HEp2 cells
# [10] = system: human iPS cardiomyocytes; format: cell-based; conditions: 3 days
# Description: Cardiomyocyte assay. […] Test or positive control compounds were then added in triplicate and the incubations continued for 3 days. Cell viability was measured by XTT and CellTiter Glo staining. For the latter method, the medium was removed from test plates, replaced with CellTiter Glo reagent in fresh medium before incubating at RT for 10 min. The well contents were transferred to a white 96-well plate and luminescence measured within 15 min on a Wallac 1450 Microbeta Trilux liquid scintillation counter.
# [11] = target: T2, human DNA polymerase β (Homo sapiens, UniProt P06746); assay: Human DNA polymerase inhibition assay, β; format: biochemical
# T2 construct: purchased CHIMERx (Madison, WI)
# Description: as §1
# [12] = individual assays, AT-511 batches 1-6, SOF in parallel
# T1 sequence (P54098 whole entry): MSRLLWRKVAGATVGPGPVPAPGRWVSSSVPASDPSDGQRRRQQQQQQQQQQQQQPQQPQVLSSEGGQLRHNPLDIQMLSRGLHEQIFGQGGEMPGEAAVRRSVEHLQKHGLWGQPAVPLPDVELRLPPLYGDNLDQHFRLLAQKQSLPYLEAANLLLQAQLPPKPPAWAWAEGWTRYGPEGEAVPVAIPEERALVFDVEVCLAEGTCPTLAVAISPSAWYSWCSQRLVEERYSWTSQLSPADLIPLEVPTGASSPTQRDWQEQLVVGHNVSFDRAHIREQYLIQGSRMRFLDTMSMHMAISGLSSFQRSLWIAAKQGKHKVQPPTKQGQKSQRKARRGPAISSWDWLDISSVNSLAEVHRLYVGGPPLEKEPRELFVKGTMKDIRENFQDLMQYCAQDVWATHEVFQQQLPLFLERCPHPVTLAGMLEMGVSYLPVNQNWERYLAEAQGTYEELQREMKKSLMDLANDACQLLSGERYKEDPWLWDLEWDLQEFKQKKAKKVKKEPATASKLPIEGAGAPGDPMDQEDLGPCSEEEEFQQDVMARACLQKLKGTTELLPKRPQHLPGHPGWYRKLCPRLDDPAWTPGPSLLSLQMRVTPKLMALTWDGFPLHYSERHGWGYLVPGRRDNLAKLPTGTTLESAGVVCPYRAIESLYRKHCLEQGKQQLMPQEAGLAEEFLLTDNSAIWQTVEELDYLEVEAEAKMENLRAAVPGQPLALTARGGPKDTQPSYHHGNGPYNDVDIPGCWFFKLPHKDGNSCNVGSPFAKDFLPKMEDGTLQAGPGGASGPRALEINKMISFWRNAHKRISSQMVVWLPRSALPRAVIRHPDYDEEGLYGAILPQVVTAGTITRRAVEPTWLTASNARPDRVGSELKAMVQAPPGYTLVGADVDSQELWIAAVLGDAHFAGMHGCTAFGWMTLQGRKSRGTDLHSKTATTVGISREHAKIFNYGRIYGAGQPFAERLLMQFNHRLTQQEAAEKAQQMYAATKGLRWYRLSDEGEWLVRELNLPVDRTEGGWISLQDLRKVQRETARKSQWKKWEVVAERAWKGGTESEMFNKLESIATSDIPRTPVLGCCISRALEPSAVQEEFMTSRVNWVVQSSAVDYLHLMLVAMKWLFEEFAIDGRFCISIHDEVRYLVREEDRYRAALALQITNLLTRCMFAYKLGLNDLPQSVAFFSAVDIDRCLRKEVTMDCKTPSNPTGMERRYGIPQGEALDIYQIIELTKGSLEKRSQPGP
smiles,measurement,setting,value
"Nc1nc2c(ncn2[C@@H]2O[C@H](COP(=O)(O)OP(=O)(O)OP(=O)(O)O)[C@@H](O)[C@H]2F)c(=O)[nH]1 [2’-fluoro-2’-dGTP, reference compound]",IC50,[1],10.4 µM
Nc1nc2c(ncn2[C@@H]2O[C@H](COP(=O)(O)OP(=O)(O)OP(=O)(O)O)[C@@H](O)[C@H]2O)c(=O)[nH]1 [GTP],kpol,[2],21 ± 1 s⁻¹
"CC(C)OC(=O)[C@H](C)N[P@](=O)(OC[C@H]1O[C@@H](n2ccc(=O)[nH]c2=O)[C@](C)(F)[C@@H]1O)Oc1ccccc1 [SOF, sofosbuvir]",EC95,[3]; GT1a H77,719 nM
same,EC95,[3]; GT1b Con-1,545 nM
same,EC50,[3]; GT1b Con-1 (control reference),89.4 nM
same,EC95,[3]; GT3a S52,700 nM
same,EC50,"[3]; Hepatitis C virus, GT1A, GT1a H77",83.4 nM
same,EC50,"[3]; Hepatitis C virus, GT1B, GT1b Con-1 (control reference)",89 nM
same,EC50,"[3]; Hepatitis C virus, GT2A, GT2a JFH-1",50.7 nM
same,EC50,"[3]; Hepatitis C virus, GT3A, GT3a S52",117 nM
same,EC50,"[3]; Hepatitis C virus, GT4A, GT4a ED43",158 nM
same,EC50,"[3]; Hepatitis C virus, GT5A, GT5a SA13",287 nM
same,EC50,"[3]; Hepatitis C virus, read-out: range in EC50 values across genotypes, panel of six laboratory strains",51 to 287 nM
same,fold range in EC50 values across genotypes,[3]; laboratory strains,5.6 fold
same,EC50,"[4]; GT1A, clinical isolate GT1a",62.7 nM
same,EC50,"[4]; GT1B, clinical isolate GT1b",86 nM
same,EC50,"[4]; GT2A, clinical isolate GT2a",22.5 nM
same,EC50,"[4]; GT2B, clinical isolate GT2b",44.8 nM
same,EC50,"[4]; GT3A, clinical isolate GT3a-1",126 nM
same,EC50,"[4]; GT3A, clinical isolate GT3a-2",123 nM
same,EC50,"[4]; GT4A, clinical isolate GT4a",74.9 nM
same,EC50,[4]; clinical isolate GT4d,93.7 nM
same,EC50,"[4]; read-out: range in EC50 values, eight clinical-isolate replicons",23 to 126 nM
same,EC95,[4]; clinical isolate GT1a,508 nM
same,EC95,[4]; clinical isolate GT1b,642 nM
same,EC95,[4]; clinical isolate GT2a,195 nM
same,EC95,[4]; clinical isolate GT2b,295 nM
same,EC95,[4]; clinical isolate GT3a-1,690 nM
same,EC95,[4]; clinical isolate GT3a-2,808 nM
same,EC95,[4]; clinical isolate GT4a,681 nM
same,EC95,[4]; clinical isolate GT4d,1020 nM
same,fold range in EC50 values,[4]; clinical isolates,5.5 fold
same,fold range in EC95 values,[4]; clinical isolates,5.2 fold
same,EC95,[5]; GT1a 2_C316N,473 nM
same,EC95,[5]; GT1a 2c1_L159F,1068 nM
same,EC95,[5]; GT1a 2c2_L159F_S282T,16950 nM
same,EC95,[5]; GT1a H77_C316N,469 nM
same,EC95,[5]; GT1a H77_S282T,7230 nM
same,EC95,[5]; GT1b Con-1_L159F,715 nM
same,EC95,[5]; GT1b Con-1_S282T,7230 nM
same,EC95,[5]; GT2b 2_L159F,539 nM
same,EC50,"[5]; GT1A, GT1a 2_C316N",73.9 nM
same,EC50,"[5]; GT1A, GT1a 2c1_L159F",115 nM
same,EC50,"[5]; GT1A, GT1a 2c2_L159F_S282T",1620 nM
same,EC50,"[5]; GT1A, GT1a H77_C316N",57.2 nM
same,EC50,"[5]; GT1A, GT1a H77_S282T",1400 nM
same,EC50,"[5]; GT1B, GT1b Con-1_L159F",111 nM
same,EC50,"[5]; GT1B, GT1b Con-1_S282T",950 nM
same,EC50,"[5]; GT2B, GT2b 2_L159F",79.2 nM
same,shift in EC50 versus reference strain lacking S282T,[5]; strains with S282T,15 fold
same,shift in EC95 versus reference strain lacking S282T,[5]; strains with S282T,19 fold
same,"toxicity to the replicon cells, none up to highest concentration tested",[6],> 1 µM
same,TC50,[6]; individual assays,>1000 nM
same,EC50,"[7]; Hepatitis C virus, GT1B, read-out: EC50 range, range over all assays",33 to 68 nM
same,EC50,"[7]; Hepatitis C virus, GT1B, read-out: mean EC50, mean (± SD) of all assays",48 ± 10 nM
same,EC50,[7]; [12],52.3 nM and 46.5 nM and 67.5 nM and 32.7 nM and 48.3 nM and 40.4 nM and 47.6 nM and 48.1 nM
same,EC95,[7]; [12],360 nM and 231 nM and 387 nM and 197 nM and 247 nM and 198 nM and 275 nM and 263 nM
same,mean EC95,[7]; mean (± SD) of all assays,270 ± 70 nM and 270 nM
same,EC50,"[7]; read-out: EC50 range, range over all assays",32.7 to 67.5 nM
same,EC50,"[7]; read-out: mean EC50, mean (± SD) of all assays",47.9 nM
Cc1ccc(CCCO)c(NCc2ccc3nc(NCCCN4CCOCC4)n(Cc4nc(C)ccc4O)c3c2)c1 [TMC-353121],TC50,[8],>0.10 µM
same,EC50,[9],3 nM
O=c1ccn([C@@H]2O[C@H](COP(=O)(O)OP(=O)(O)OP(=O)(O)O)[C@@H](O)[C@H]2O)c(=O)[nH]1 [UTP],kpol,[2],17 ± 1 s⁻¹
COc1cc2nc(N3CCN(C(=O)C4COc5ccccc5O4)CC3)nc(N)c2cc1OC (centres unmarked) [doxazosin],TC50,[10],18 µM
"C[C@H](CCC(=O)O)[C@H]1CC[C@H]2[C@@H]3CC[C@@H]4C[C@H](O)CC[C@]4(C)[C@H]3CC[C@]12C [lithocholic acid, reference compound]",IC50,[11],2910 nM
